Experiments:
SHP2 = molecular target: T1, SHP2 (Homo sapiens, UniProt Q06124); assay: SHP2 degradation by Western blotting in HEK293 cells; assay type: cell-based; set-up: endogenous in cells; host or cells: HEK293; settings: HEK293 cells; for Degradation at 1 μM / Degradation at 10 μM: 16 h treatment; for SHP2 degradation (in words): 1 and 10 µM
T1 sequence (Q06124 1-593): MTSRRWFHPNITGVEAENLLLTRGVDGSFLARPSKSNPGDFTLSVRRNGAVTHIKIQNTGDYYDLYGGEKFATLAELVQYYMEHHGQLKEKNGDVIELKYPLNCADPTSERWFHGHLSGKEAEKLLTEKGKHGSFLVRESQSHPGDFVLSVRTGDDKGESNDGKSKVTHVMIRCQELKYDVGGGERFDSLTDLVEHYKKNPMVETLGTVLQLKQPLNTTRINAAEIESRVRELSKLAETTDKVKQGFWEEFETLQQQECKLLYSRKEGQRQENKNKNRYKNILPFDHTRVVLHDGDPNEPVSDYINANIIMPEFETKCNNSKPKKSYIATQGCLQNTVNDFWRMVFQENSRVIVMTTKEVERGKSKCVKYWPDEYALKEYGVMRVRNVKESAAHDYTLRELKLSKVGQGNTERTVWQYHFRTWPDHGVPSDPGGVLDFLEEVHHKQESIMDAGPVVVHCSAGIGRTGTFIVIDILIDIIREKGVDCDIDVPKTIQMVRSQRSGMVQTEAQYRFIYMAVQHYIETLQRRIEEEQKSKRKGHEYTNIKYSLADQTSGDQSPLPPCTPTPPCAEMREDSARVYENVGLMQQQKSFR
Method: HEK293, SKBR3, U2OS, MCF7 and A549 cells were grown in DMEM supplemented with 10% FBS, penicillin (50 units/mL), and streptomycin (50 μg/mL) in a 37 °C incubator containing 5% CO2. […] For western-blot analysis, protein samples were separated by SDS-PAGE, transferred to nitrocellulose membranes, and incubated overnight at 4 °C with corresponding primary antibodies diluted in 5% BSA in phosphate-buffered saline Tween (PBST). SuperSignal™ West Pico PLUS (PI34580; Thermo Scientific) was used to visualize the antibodies in the bioanalytical imaging system (Azure Biosystems c500). […] Anti-PTP1B (ab244207) antibody was purchased from Abcam. For colony formation assay, a total of approximately 200–500 cells were seeded to each well in a 12-well plate.
Supplemental Figures, Schemes, and Tables:
Figure S1. Western blots of degradation assay for PROTAC screening. (A) Degradation assay of
compo un ds i n Table 1 at 1 μM fo r 16 hours in H EK29 3 cells. (B) Degradation assay of compounds in Table
1 at 10 μM for 16 hours in HEK293 cells. (C) Degradation assay of compounds in Table 2 at 1 μM for 16

full-length SHP2 (1-528) = molecular target: T2, full-length SHP2 (1-528) (Homo sapiens, UniProt Q06124); assay: SHP2 allosteric inhibition assay (DiFMUP substrate); assay type: biochemical; settings: full length SHP2, enzymatic assay
T2 construct: The SHP2 protein (Aa 1–528) was cloned into a pET-21a(+) vector; His; made in house; host or cells: E. coli BL21(DE3)
T2 sequence (Q06124 1-528): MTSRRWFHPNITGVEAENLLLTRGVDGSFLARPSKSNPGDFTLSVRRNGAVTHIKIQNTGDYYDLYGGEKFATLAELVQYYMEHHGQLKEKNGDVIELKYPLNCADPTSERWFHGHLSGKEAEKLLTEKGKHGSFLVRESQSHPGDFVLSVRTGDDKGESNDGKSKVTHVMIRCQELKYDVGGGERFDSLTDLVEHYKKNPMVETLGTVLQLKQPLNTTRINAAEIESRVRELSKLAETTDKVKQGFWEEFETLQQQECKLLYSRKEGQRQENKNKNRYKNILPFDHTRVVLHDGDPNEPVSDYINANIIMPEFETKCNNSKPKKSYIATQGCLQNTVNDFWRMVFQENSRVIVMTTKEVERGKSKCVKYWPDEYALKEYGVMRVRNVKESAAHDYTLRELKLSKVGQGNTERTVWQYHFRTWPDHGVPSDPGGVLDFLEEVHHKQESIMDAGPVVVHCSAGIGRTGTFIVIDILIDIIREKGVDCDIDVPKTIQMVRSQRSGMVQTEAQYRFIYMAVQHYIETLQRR
Method: The SHP2 protein (Aa 1–528) was cloned into a pET-21a(+) vector. Bacterial BL21(DE3) (Novagen) was used as an expression host, and the induction of protein expression was carried out in LB media with 1 mM IPTG at 18 °C overnight. Cell pellets were stored at −80 °C for subsequent protein purification. Protein purification was conducted at 4 °C. Frozen cell pellets were lysed by sonication in 40 mL cold lysis buffer (50 mM Tris-HCl, pH 8.0, 150 mM NaCl, 5 mM imidazole, and 1 mM PMSF) per liter cell pellet. Cell lysates were clarified by centrifuging for 15 min at 6000 rpm. The supernatant was incubated with HisPur Ni-NTA resin (Thermo Scientific, Waltham, MA, USA) for 2 h, and then packed onto a column and washed with 50 resin volume of buffer A (50 mM Tris-HCl, pH 8.0, 500 mM NaCl, 5 mM imidazole). The HIS-tagged proteins were eluted with Buffer B (50 mM Tris-HCl, pH = 8.0, 500 mM NaCl, 300 mM imidazole,). Pooled HIS-protein-containing fractions were concentrated, loaded onto a HiLoad 26/600 Superdex 75 column (GE Healthcare Biosciences, Piscataway, NJ, USA), and eluted with storage buffer (50 mM Tris-HCl, pH 8.0, 150 mM NaCl, 1 mM DTT, 10% glycerol). Proteins used for inhibition assays were purified using Ni-NTA resin (Qiagen, Hilden, Germany) followed by size exclusion column chromatography (ÄKTA pure, Cytiva, Marlborough, MA, USA) and the purity was determined to be >95% by SDS-PAGE and Coomassie staining. The protein was aliquoted and stored at −80 °C.
The catalytic activity of SHP2 (1-528) was assayed with 6,8-Difluoro-4-Methylumbelliferyl Phosphate (DiFMUP, Invitrogen, cat# D6567) as a substrate in 3,3-Dimethylglutaric acid (DMG) buffer (50 mM DMG, pH 7.0, 1 mM EDTA, 18 mM NaCl, 0.01% Triton X-100) at 25 °C. To determine the IC50 values, the assays were performed in 96-well plates (Corning Costar 3915). Series diluted compounds were incubated with 0.5 nM of SHP2 and 0.5 μM of peptide IRS1_pY1172(dPEG8)pY1222 (sequence H2N-LN(pY)IDLDLV(dPEG8)LST(pY)ASINFQK-amide). After 30 min incubation at room temperature, the substrate DiFMUP was added to the reaction (200 μM final concentration, total reaction volume is […]) and incubated at 25 °C for 10 min. The reaction was then quenched by adding 40 μL of 160 μM bpV(Phen) (Sigma–Aldrich, cat# SML0889) solution. The fluorescence signal was monitored with a CLARIOstar Plus Microplate Spectrophotometer (BMG Labtech) using excitation and emission wavelengths of 340 and 450 nm, respectively. The inhibitordose-response curves were analyzed using normalized IC50 regression curve fitting with control-based normalization. Data were fitted using Prism GraphPad 9.2.0.

[1] = Decomposition of CRBN-based PROTACs in DMEM media or water (LCMS); assay type: physicochemical; settings: 10 μM, within 3 h, DMEM cell media or water, room temperature
Source text: With the desired SHP2 ligand in hand, we synthesized an initial set of PROTAC molecules using pomalidomide or lenalidomide as a ligand of the E3 ligase Cereblon (CRBN), which is one of the most productive E3 in the development of PROTACs. […] This observation is consistent with the fact that phthalimides can be smoothly hydrolyzed in the presence of water and an organic base, as these PROTAC compounds contain a basic aliphatic amino group. Given that this free amino group in the allosteric inhibitors is essential for the binding affinity to SHP2 [28], we reasoned that pomalidomide or lenalidomide-based CRBN ligands are not suitable for the development of in vivo efficacious SHP2 degraders in this study due to stability considerations.
Scheme S1. Decomposition of CRBN-based PROTACs in the presence of water. 10 μM compound 11 or
12 was incubated in DMEM media or water for 3 hours. The fina l co ncentrations of the compounds at
the endpoint were quantified by LCMS.
Table S1. Enzymatic IC50s of first generation SHP2 PROTACs against full length SHP2
Compound ID Linker Structure Linker Length (atom) SHP2 IC50 (n M) […]

Compound	Degradation at 1 μM (SHP2)	Degradation at 10 μM (SHP2)	IC50 (full-length SHP2 (1-528))	compound converted into ring-opened products 13 [1]	SHP2 degradation (in words) (SHP2)
Cc1ncsc1-c1ccc([C@H](C)NC(=O)[C@@H]2C[C@@H](O)CN2C(=O)[C@@H](NC(=O)CCCCCCCCCCCNC(=O)CCCCCC2(CN)CCN(c3cnc(Sc4cccc(Cl)c4Cl)c(N)n3)CC2)C(C)(C)C)cc1 [SC11, (2S,4R)-1-((S)-2-(12-(6-(1-(6-amino-5-((2,3-dichlorophenyl)thio)pyrazin-2-yl)-4-(aminomethyl)piperidin-4-yl)hexanamido)dodecanamido)-3,3-dimethylbutanoyl)-4-hydroxy-N-((S)-1-(4-(4-methylthiazol-5-yl)phenyl)ethyl)pyrrolidine-2-carboxamide]	27%	64%	105 ± 15.6 nM		
NCC1(CCCCCC(=O)NCCCCCC(=O)Nc2cccc3c2CN(C2CCC(=O)NC2=O)C3=O)CCN(c2cnc(Sc3cccc(Cl)c3Cl)c(N)n2)CC1 (stereo not drawn) [compound 12, 6-(1-(6-amino-5-((2,3-dichlorophenyl)thio)pyrazin-2-yl)-4-(aminomethyl)piperidin-4-yl)-N-(6-((2-(2,6-dioxopiperidin-3-yl)-1-oxoisoindolin-4-yl)amino)-6-oxohexyl)hexanamide]				over 90%	
Cc1ncsc1-c1ccc([C@H](C)NC(=O)[C@@H]2C[C@@H](O)CN2C(=O)[C@@H](NC(=O)CCOCCOCCOCCNC(=O)CCCCCC2(CN)CCN(c3cnc(Sc4cccc(Cl)c4Cl)c(N)n3)CC2)C(C)(C)C)cc1 [P3, (2S,4R)-1-((S)-22-(1-(6-amino-5-((2,3-dichlorophenyl)thio)pyrazin-2-yl)-4-(aminomethyl)piperidin-4-yl)-2-(tert-butyl)-4,17-dioxo-7,10,13-trioxa-3,16-diazadocosanoyl)-4-hydroxy-N-((S)-1-(4-(4-methylthiazol-5-yl)phenyl)ethyl)pyrrolidine-2-carboxamide]	<10%	<10%	158 ± 26.5 nM		did not induce significant degradation of SHP2
Cc1ncsc1-c1ccc([C@H](C)NC(=O)[C@@H]2C[C@@H](O)CN2C(=O)[C@@H](NC(=O)CCOCCOCCOCCOCCOCCNC(=O)CCCCCC2(CN)CCN(c3cnc(Sc4cccc(Cl)c4Cl)c(N)n3)CC2)C(C)(C)C)cc1 [P5, (2S,4R)-1-((S)-28-(1-(6-amino-5-((2,3-dichlorophenyl)thio)pyrazin-2-yl)-4-(aminomethyl)piperidin-4-yl)-2-(tert-butyl)-4,23-dioxo-7,10,13,16,19-pentaoxa-3,22-diazaoctacosanoyl)-4-hydroxy-N-((S)-1-(4-(4-methylthiazol-5-yl)phenyl)ethyl)pyrrolidine-2-carboxamide]	<10%	<10%	166 ± 11.9 nM		did not induce significant degradation of SHP2
Cc1ncsc1-c1ccc([C@H](C)NC(=O)[C@@H]2C[C@@H](O)CN2C(=O)[C@@H](NC(=O)CCCCCNC(=O)CCCCCC2(CN)CCN(c3cnc(Sc4cccc(Cl)c4Cl)c(N)n3)CC2)C(C)(C)C)cc1 [SC5, (2S,4R)-1-((S)-2-(6-(6-(1-(6-amino-5-((2,3-dichlorophenyl)thio)pyrazin-2-yl)-4-(aminomethyl)piperidin-4-yl)hexanamido)hexanamido)-3,3-dimethylbutanoyl)-4-hydroxy-N-((S)-1-(4-(4-methylthiazol-5-yl)phenyl)ethyl)pyrrolidine-2-carboxamide]	<10%	<10%	139 ± 10.4 nM		negligible to modest degradation
Cc1ncsc1-c1ccc([C@H](C)NC(=O)[C@@H]2C[C@@H](O)CN2C(=O)[C@@H](NC(=O)CCCCCCCCCCNC(=O)CCCCCC2(CN)CCN(c3cnc(Sc4cccc(Cl)c4Cl)c(N)n3)CC2)C(C)(C)C)cc1 [SC10, (2S,4R)-1-((S)-2-(11-(6-(1-(6-amino-5-((2,3-dichlorophenyl)thio)pyrazin-2-yl)-4-(aminomethyl)piperidin-4-yl)hexanamido)undecanamido)-3,3-dimethylbutanoyl)-4-hydroxy-N-((S)-1-(4-(4-methylthiazol-5-yl)phenyl)ethyl)pyrrolidine-2-carboxamide]	36%		122 ± 19.1 nM		

From paper PMC10574094, “Discovery of a SHP2 Degrader with In Vivo Anti-Tumor Activity” (Molecules, 2023)
